In patent US7795228B2, “Spiroheterocyclic glycosides and methods of use” (Theracos, Inc., priority 2006, dated 2010):

Experiments:
human SGLT2 = target: T1, human SGLT2 (Homo sapiens, UniProt P31639); experiment: Methyl-α-D-[U-14C]glucopyranoside uptake assay, cells stably expressing human SGLT2; assay type: cell-based; details: HEK293.ETN cells expressing human SGLT2, 1.5 h incubation
T1 construct: A full-length cDNA clone expressing human SGLT2 (GenScript Corporation)
T1 sequence (P31639 1-672): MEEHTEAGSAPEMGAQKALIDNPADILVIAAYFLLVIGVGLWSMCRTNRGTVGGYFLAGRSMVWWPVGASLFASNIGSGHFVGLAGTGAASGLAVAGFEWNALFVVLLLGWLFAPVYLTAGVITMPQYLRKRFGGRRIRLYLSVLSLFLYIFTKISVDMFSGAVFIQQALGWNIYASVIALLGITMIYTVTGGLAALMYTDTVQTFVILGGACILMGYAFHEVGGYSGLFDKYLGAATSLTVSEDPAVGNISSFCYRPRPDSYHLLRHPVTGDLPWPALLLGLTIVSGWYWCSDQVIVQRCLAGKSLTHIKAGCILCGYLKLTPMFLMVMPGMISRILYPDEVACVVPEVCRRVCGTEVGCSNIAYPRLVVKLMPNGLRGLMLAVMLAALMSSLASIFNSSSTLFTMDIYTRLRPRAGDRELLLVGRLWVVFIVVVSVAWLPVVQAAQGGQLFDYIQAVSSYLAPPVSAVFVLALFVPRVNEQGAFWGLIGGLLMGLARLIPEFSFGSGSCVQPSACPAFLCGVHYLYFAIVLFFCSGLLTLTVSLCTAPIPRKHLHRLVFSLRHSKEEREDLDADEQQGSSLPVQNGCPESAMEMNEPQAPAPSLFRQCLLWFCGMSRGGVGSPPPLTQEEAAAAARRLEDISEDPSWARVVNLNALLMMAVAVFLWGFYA
From the text: A full-length cDNA clone expressing human SGLT2 (GenScript Corporation) was subcloned into Hind III and Not I sites of pEAK15 expression vector. Clones harboring the cDNA inserts were identified by restriction analysis.
Plasmid containing human SGLT2 was linearized with Nsi I and purified by agarose gel electrophoresis. Using Lipofectamine 2000 Transfection Reagent (Invitrogen Corporation), DNA was transfected into HEK293.ETN cells and cultured in Dulbecco's Modified Eagle Medium (DMEM) containing 10% fetal bovine serum (FBS) at 37° C. under 5% CO2 for 24 h. Transfectants were selected in the same growth medium supplemented with puromycin (Invitrogen Corporation) for two weeks. Puromycin-resistant cells were recovered and seeded on a fresh 96-well plate (single cell per well) and cultured in the presence of puromycin until cells became confluent. Puromycin-resistant clones were evaluated for SGLT2 activity in the methyl-α-D-[U-^14C]glucopyranoside uptake assay described below.
(§1) Cells expressing SGLT1 or SGLT2 were seeded on 96-well ScintiPlate scintillating plates (PerkinElmer, Inc.) in DMEM containing 10% FBS (1×10^5 cells per well in 100 μl medium) incubated at 37° C. under 5% CO2 for 48 h prior to the assay. Cells were washed twice with 150 μl of either sodium buffer (137 mM NaCl, 5.4 mM KCl, 2.8 mM CaCl2, 1.2 mM MgCl2, 10 mM tris(hydroxymethyl)aminomethane/N-2-hydroxyethylpiperazine-N′-ethanesulfonic acid [Tris/Hepes], pH 7.2) or sodium-free buffer (137 mM N-methyl-glucamine, 5.4 mM KCl, 2.8 mM CaCl2, 1.2 mM MgCl2, 10 mM Tris/Hepes, pH 7.2). Test compound in 50 μl each of sodium or sodium-free buffer containing 40 μCi/ml methyl-α-D-[U-^14C] glucopyranoside (Amersham Biosciences/GE Healthcare), either with (symbols in parentheses) or without (symbols without parentheses) 25% human serum, was added per well of a 96-well plate and incubated at 37° C. with shaking for either 2 h (SGLT1 assay) or 1.5 h (SGLT2 assay). Cells were washed twice with 150 μl of wash buffer (137 mM N-methylglucamine, 10 mM Tris/Hepes, pH 7.2) and methyl-α-D-[U-^14C]glucopyranoside uptake was quantitated using a TopCount scintillation counter (PerkinElmer, Inc.). Sodium-dependent glucopyranoside uptake was measured by subtracting the values obtained with sodium-free buffer from those obtained using sodium buffer (average of triplicate determinations).

human SGLT1 = target: T2, human SGLT1 (Homo sapiens, UniProt P13866); experiment: Methyl-α-D-[U-14C]glucopyranoside uptake assay, human SGLT1 expressing cells; assay type: cell-based; details: COS-7 cells expressing human SGLT1, 2 h incubation
T2 construct: Full-length human SGLT1 cDNA on pDream2.1 expression vector was obtained from GenScript Corporation; host or cells: COS-7 cells
T2 sequence (P13866 1-664): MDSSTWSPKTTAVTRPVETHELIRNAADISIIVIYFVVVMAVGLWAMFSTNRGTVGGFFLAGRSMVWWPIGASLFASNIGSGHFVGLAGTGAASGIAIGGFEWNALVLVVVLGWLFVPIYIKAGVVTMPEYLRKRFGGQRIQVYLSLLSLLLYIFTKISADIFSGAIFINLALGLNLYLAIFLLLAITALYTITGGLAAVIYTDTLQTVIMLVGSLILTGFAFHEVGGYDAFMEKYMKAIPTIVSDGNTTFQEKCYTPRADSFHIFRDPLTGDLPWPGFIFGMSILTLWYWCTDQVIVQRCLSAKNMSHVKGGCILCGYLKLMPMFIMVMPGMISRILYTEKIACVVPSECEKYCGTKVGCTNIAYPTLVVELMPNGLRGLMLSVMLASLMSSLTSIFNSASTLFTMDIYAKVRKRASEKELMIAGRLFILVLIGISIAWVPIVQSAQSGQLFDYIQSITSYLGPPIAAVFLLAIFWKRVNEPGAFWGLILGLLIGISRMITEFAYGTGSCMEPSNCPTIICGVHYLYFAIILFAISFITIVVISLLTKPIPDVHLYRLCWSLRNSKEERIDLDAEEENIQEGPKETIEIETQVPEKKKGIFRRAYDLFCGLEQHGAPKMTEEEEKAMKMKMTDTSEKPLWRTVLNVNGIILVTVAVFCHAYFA
Experimental: Full-length human SGLT1 cDNA on pDream2.1 expression vector was obtained from GenScript Corporation and propagated in Escherichia coli strain DH5α using Luria-Bertani (LB) medium containing ampicillin. Plasmid DNA was isolated using the QIAGEN Plasmid Midi Kit (QIAGEN Inc.). […] Transfected cells were stored in DMEM containing 10% dimethyl sulfoxide (DMSO) at −80° C.
as §1

[1] = without human serum (symbols without parentheses)
[2] = with 25% human serum (symbols in parentheses)

Compound	IC50 (human SGLT2; [1]) [µM]	IC50 (human SGLT1; [1]) [µM]	IC50 (human SGLT2; [2]) [µM]	IC50 (human SGLT1; [2]) [µM]
CCc1ccc(Cc2ccc3c(c2)[C@]2(CCO3)O[C@H](CO)[C@@H](O)[C@H](O)[C@H]2O)cc1 [Compound 12, (2′S,3′R,4′S,5′S,6′R)-6-(4-ethylbenzyl)-6′-(hydroxymethyl)-3′,4′,5′,6′-tetrahydrospiro[chroman-4,2′-pyran]-3′,4′,5′-triol]	< 1	> 100	–	–
CCc1ccc(Cc2cc3c(cc2Cl)OCC[C@]32O[C@H](CO)[C@@H](O)[C@H](O)[C@H]2O)cc1 [Compound 20, (2′S,3′R,4′S,5′S,6′R)-7-chloro-6-(4-ethylbenzyl)-6′-(hydroxymethyl)-3′,4′,5′,6′-tetrahydrospiro[chroman-4,2′-pyran]-3′,4′,5′-triol]	< 1	10 to 100	–	–
CCc1ccc(Cc2cc3c(cc2Cl)OC[C@]32O[C@H](CO)[C@@H](O)[C@H](O)[C@H]2O)cc1 [Compound 30, (2′R,3′R,4′S,5′S,6′R)-6-chloro-5-(4-ethylbenzyl)-6′-(hydroxymethyl)-3′,4′,5′,6′-tetrahydro-2H-spiro[benzofuran-3,2′-pyran]-3′,4′,5′-triol]	–	–	< 1	10 to 100
CCc1ccc(Cc2cc3c(cc2Cl)OCCC[C@]32O[C@H](CO)[C@@H](O)[C@H](O)[C@H]2O)cc1 [Compound 38, (2′S,3′R,4′S,5′S,6′R)-8-chloro-7-(4-ethylbenzyl)-6′-(hydroxymethyl)-3,3′,4,4′,5′,6′-hexahydro-2H-spiro[benzo[b]oxepine-5,2′-pyran]-3′,4′,5′-triol]	–	–	< 1	10 to 100
CCc1ccc(Cc2cc3c(cc2Cl)OC(OC)C[C@]32O[C@H](CO)[C@@H](O)[C@H](O)[C@H]2O)cc1 (stereo partly drawn) [Compound 43, (2′S,3′R,4′S,5′S,6′R)-7-chloro-6-(4-ethylbenzyl)-6′-(hydroxymethyl)-2-methoxy-3′,4′,5′,6′-tetrahydrospiro[chroman-4,2′-pyran]-3′,4′,5′-triol]	< 1	> 100	–	–
CCc1ccc(Cc2cc3c(cc2Cl)OC(O)C[C@]32O[C@H](CO)[C@@H](O)[C@H](O)[C@H]2O)cc1 (stereo partly drawn) [Compound 44, (2′S,3′R,4′S,5′S,6′R)-7-chloro-6-(4-ethylbenzyl)-6′-(hydroxymethyl)-3′,4′,5′,6′-tetrahydrospiro[chroman-4,2′-pyran]-2,3′,4′,5′-tetraol]	< 1	> 100	–	–
CCc1ccc(Cc2cc3c(cc2Cl)OC(C)C[C@]32O[C@H](CO)[C@@H](O)[C@H](O)[C@H]2O)cc1 (stereo partly drawn) [Compound 47, (2′S,3′R,4′S,5′S,6′R)-7-chloro-6-(4-ethylbenzyl)-6′-(hydroxymethyl)-2-methyl-3′,4′,5′,6′-tetrahydrospiro[chroman-4,2′-pyran]-3′,4′,5′-triol]	–	–	< 1	> 100
CCc1ccc(Cc2cc3c(cc2Cl)OC(C)(CO)C[C@]32O[C@H](CO)[C@@H](O)[C@H](O)[C@H]2O)cc1 (stereo partly drawn) [Compound 52, (2′S,3′R,4′S,5′S,6′R)-7-chloro-6-(4-ethylbenzyl)-2,6′-bis(hydroxymethyl)-2-methyl-3′,4′,5′,6′-tetrahydrospiro[chroman-4,2′-pyran]-3′,4′,5′-triol]	–	–	< 1	> 100
CCc1ccc(Cc2cc3c(cc2Cl)OC(C)(C)C[C@]32O[C@H](CO)[C@@H](O)[C@H](O)[C@H]2O)cc1 [Compound 57, (2′S,3′R,4′S,5′S,6′R)-7-chloro-6-(4-ethylbenzyl)-6′-(hydroxymethyl)-2,2-dimethyl-3′,4′,5′,6′-tetrahydrospiro[chroman-4,2′-pyran]-3′,4′,5′-triol]	–	–	< 1	> 100
